target: USP7 (Homo sapiens (Human), UniProt Q93009); assay: USP7 Assay B (Ubitquin-Rhodamine110 Assay); type: biochemical; details: Ub-Rh110 substrate 25 nM
Experimental: Stock compound solutions were stored at −20° C. as 10 mM in DMSO. […] Prestamped assay plates were allowed to come to room temperature on the day of the assay. For the screen, 100 nL of 2 mM was pre-dispensed for a final screening concentration of 10 μM (DMSO(fc)=0.5%). […] Unless otherwise indicated, all follow-up assays were run on triplecate plates. […] Pre-stamped with compounds were either not preincubated or preincubated with USP7 between 30 to 120 minutes prior to the addition of 10 μL of 2×Ub-Rh110 to compound plates. Plates were incubated stacked for either 23 or 45 minutes at room temperature before fluorescence was read on the Envision (Excitation at 485 nm and Emission at 535 nm; Perkin Elmer) or on the PheraSTAR (Excitation at 485 nm and Emission at 535 nm; BMG Labtech).
Data from USP7 Assays A and B were reported as percent inhibition (inh) compared with control wells based on the following equation: % inh=1−((FLU−AveLow)/(AveHigh−AveLow)) where FLU=measured Fluorescence (See Tables 2 and 3). AveLow=average Fluorescence of no enzyme control (n=16). AveHigh=average Fluorescence of DMSO control (n=16). IC50 values were determined by curve fitting of the standard 4 parameter logistic fitting algorithm included in the Activity Base software package: IDBS XE Designer Model205. Data is fitted using the Levenburg Marquardt algorithm.

Sequence of USP7 (Q93009 208-1102): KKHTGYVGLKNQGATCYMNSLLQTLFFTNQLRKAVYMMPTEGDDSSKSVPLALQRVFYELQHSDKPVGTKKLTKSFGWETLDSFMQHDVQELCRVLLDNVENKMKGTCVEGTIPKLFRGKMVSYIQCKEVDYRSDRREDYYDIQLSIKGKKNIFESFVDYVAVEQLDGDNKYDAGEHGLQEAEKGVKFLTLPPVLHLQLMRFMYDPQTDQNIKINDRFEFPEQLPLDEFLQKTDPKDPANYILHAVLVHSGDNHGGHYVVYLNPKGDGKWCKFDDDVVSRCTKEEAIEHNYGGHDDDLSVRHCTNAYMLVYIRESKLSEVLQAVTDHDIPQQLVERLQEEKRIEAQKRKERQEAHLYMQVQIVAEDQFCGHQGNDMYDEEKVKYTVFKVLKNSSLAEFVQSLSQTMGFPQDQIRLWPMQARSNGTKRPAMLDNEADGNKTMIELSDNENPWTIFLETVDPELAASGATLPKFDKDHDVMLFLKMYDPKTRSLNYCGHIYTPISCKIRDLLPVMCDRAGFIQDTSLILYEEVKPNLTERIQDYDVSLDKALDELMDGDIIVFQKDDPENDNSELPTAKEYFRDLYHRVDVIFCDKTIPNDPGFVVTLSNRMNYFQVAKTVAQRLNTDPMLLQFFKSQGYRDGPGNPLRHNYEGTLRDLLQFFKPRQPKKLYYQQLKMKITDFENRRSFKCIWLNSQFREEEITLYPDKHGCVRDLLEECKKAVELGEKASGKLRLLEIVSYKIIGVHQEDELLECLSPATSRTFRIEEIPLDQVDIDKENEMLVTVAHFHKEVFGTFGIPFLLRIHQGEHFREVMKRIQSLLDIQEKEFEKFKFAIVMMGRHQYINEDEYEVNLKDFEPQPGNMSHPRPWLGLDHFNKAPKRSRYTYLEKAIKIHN

Which IC50 does the source give for `O=C(c1cccc(-c2cccc(F)c2)c1)N1CCC(O)(Cn2cnn3cccc3c2=O)CC1` [Compound I-30, 3-((1-(3′-fluoro-[1,1′-biphenyl]-3-carbonyl)-4-hydroxypiperidin-4-yl)methyl)pyrrolo[2,1-f][1,2,4]triazin-4(3H)-one] here?
The IC50 was 1 to 10 µM.

`CC(C)(C#N)c1ccc(C(=O)N2CCC(O)(Cn3cnn4cccc4c3=O)CC2)cc1` [Compound I-31, 2-(4-(4-hydroxy-4-((4-oxopyrrolo[2,1-f][1,2,4]triazin-3(4H)-yl)methyl)piperidine-1-carbonyl)phenyl)-2-methylpropanenitrile] was tested. Which IC50 did it give?
The IC50 was greater than 10 µM.

`O=C(c1cnc(-c2ccccc2)o1)N1CCC(O)(Cn2cnn3cccc3c2=O)CC1` [Compound I-32, 3-((4-hydroxy-1-(2-phenyloxazole-5-carbonyl)piperidin-4-yl)methyl)pyrrolo[2,1-f][1,2,4]triazin-4(3H)-one] was tested. Which IC50 did it give?
The IC50 was greater than 10 µM.

Which IC50 does the source give for `O=C(C1CCN(c2nc3ccccc3o2)CC1)N1CCC(O)(Cn2cnn3cccc3c2=O)CC1` [Compound I-33, 3-((1-(1-(benzo[d]oxazol-2-yl)piperidine-4-carbonyl)-4-hydroxypiperidin-4-yl)methyl)pyrrolo[2,1-f][1,2,4]triazin-4(3H)-one] here?
Its IC50 is greater than 10 µM.

For `COc1cccc(-c2ccc(C(=O)N3CCC(O)(Cn4cnn5cccc5c4=O)CC3)cc2)c1` [Compound I-35, 3-((4-hydroxy-1-(3′-methoxy-[1,1′-biphenyl]-4-carbonyl)piperidin-4-yl)methyl)pyrrolo[2,1-f][1,2,4]triazin-4(3H)-one], which IC50 is on record?
The IC50 was greater than 10 µM.

`O=C(c1ccc(-c2ccccc2)cc1)N1CCC(O)(Cn2cnn3cccc3c2=O)CC1` [Compound I-36, 3-((1-([1,1′-biphenyl]-4-carbonyl)-4-hydroxypiperidin-4-yl)methyl)pyrrolo[2,1-f][1,2,4]triazin-4(3H)-one] was tested. Which IC50 did it give?
Its IC50 is greater than 10 µM.

Which IC50 does the source give for `CCOc1cccc(-c2ccc(C(=O)N3CCC(O)(Cn4cnn5cccc5c4=O)CC3)cc2)c1` [Compound I-37, 3-((1-(3′-ethoxy-[1,1′-biphenyl]-4-carbonyl)-4-hydroxypiperidin-4-yl)methyl)pyrrolo[2,1-f][1,2,4]triazin-4(3H)-one] here?
The IC50 was greater than 10 µM.

`CN(C)C(=O)c1ccc(-c2ccc(C(=O)N3CCC(O)(Cn4cnn5cccc5c4=O)CC3)cc2)cc1` [Compound I-38, 4′-(4-hydroxy-4-((4-oxopyrrolo[2,1-f][1,2,4]triazin-3(4H)-yl)methyl)piperidine-1-carbonyl)-N,N-dimethyl-[1,1′-biphenyl]-4-carboxamide] was tested. Which IC50 did it give?
Its IC50 is 1 to 10 µM.

For `O=C(c1ccc(-c2ccc(C(=O)N3CCC(O)(Cn4cnn5cccc5c4=O)CC3)cc2)cc1)N1CCCC1` [Compound I-39, 3-((4-hydroxy-1-(4′-(pyrrolidine-1-carbonyl)-[1,1′-biphenyl]-4-carbonyl)piperidin-4-yl)methyl)pyrrolo[2,1-f][1,2,4]triazin-4(3H)-one], which IC50 is on record?
Its IC50 is 1 to 10 µM.

Which IC50 does the source give for `COc1ccc(OC)c(-c2ccc(C(=O)N3CCC(O)(Cn4cnn5cccc5c4=O)CC3)cc2)c1` [Compound I-40, 3-((1-(2′,5′-dimethoxy-[1,1′-biphenyl]-4-carbonyl)-4-hydroxypiperidin-4-yl)methyl)pyrrolo[2,1-f][1,2,4]triazin-4(3H)-one] here?
The IC50 was greater than 10 µM.

How did the IC50 turn out when `CCNC(=O)c1ccc(-c2ccc(C(=O)N3CCC(O)(Cn4cnn5cccc5c4=O)CC3)cc2)cc1` [Compound I-41, N-ethyl-4′-(4-hydroxy-4-((4-oxopyrrolo[2,1-f][1,2,4]triazin-3(4H)-yl)methyl)piperidine-1-carbonyl)-[1,1′-biphenyl]-4-carboxamide] was run?
The IC50 was greater than 10 µM.

With `O=C(c1ccc(-c2cnc3ccccc3c2)cc1)N1CCC(O)(Cn2cnn3cccc3c2=O)CC1` [Compound I-42, 3-((4-hydroxy-1-(4-(quinolin-3-yl)benzoyl)piperidin-4-yl)methyl)pyrrolo[2,1-f][1,2,4]triazin-4(3H)-one] as the compound, how does the IC50 read?
The IC50 was 1 to 10 µM.

`O=C(c1ccc(-c2ccc3ncccc3c2)cc1)N1CCC(O)(Cn2cnn3cccc3c2=O)CC1` [Compound I-43, 3-((4-hydroxy-1-(4-(quinolin-6-yl)benzoyl)piperidin-4-yl)methyl)pyrrolo[2,1-f][1,2,4]triazin-4(3H)-one] was tested. Which IC50 did it give?
Its IC50 is 1 to 10 µM.

Which IC50 does the source give for `COc1cc(OC)cc(-c2ccc(C(=O)N3CCC(O)(Cn4cnn5cccc5c4=O)CC3)cc2)c1` [Compound I-44, 3-((1-(3′,5′-dimethoxy-[1,1′-biphenyl]-4-carbonyl)-4-hydroxypiperidin-4-yl)methyl)pyrrolo[2,1-f][1,2,4]triazin-4(3H)-one] here?
The IC50 was greater than 10 µM.

How did the IC50 turn out when `Cc1ccc2cc(-c3ccc(C(=O)N4CCC(O)(Cn5cnn6cccc6c5=O)CC4)cc3)ccc2n1` [Compound I-45, 3-((4-hydroxy-1-(4-(2-methylquinolin-6-yl)benzoyl)piperidin-4-yl)methyl)pyrrolo[2,1-f][1,2,4]triazin-4(3H)-one] was run?
The IC50 was 1 to 10 µM.

`Cn1cnc2cc(-c3ccc(C(=O)N4CCC(O)(Cn5cnn6cccc6c5=O)CC4)cc3)ccc21` [Compound I-46, 3-((4-hydroxy-1-(4-(1-methyl-1H-benzo[d]imidazol-5-yl)benzoyl)piperidin-4-yl)methyl)pyrrolo[2,1-f][1,2,4]triazin-4(3H)-one] was tested. Which IC50 did it give?
Its IC50 is greater than 10 µM.

With `O=C(c1ccc(-c2ccc3ocnc3c2)cc1)N1CCC(O)(Cn2cnn3cccc3c2=O)CC1` [Compound I-47, 3-((1-(4-(benzo[d]oxazol-5-yl)benzoyl)-4-hydroxypiperidin-4-yl)methyl)pyrrolo[2,1-f][1,2,4]triazin-4(3H)-one] as the compound, how does the IC50 read?
The IC50 was greater than 10 µM.

For `O=C(c1ccc(-c2ccc3ncnn3c2)cc1)N1CCC(O)(Cn2cnn3cccc3c2=O)CC1` [Compound I-48, 3-((1-(4-([1,2,4]triazolo[1,5-a]pyridin-6-yl)benzoyl)-4-hydroxypiperidin-4-yl)methyl)pyrrolo[2,1-f][1,2,4]triazin-4(3H)-one], which IC50 is on record?
The IC50 was greater than 10 µM.

Which IC50 does the source give for `CC(CC(=O)N1CCC(O)(Cn2cnn3cc(Cl)cc3c2=O)CC1)c1ccccc1` (stereo not drawn) [Compound I-49, 6-chloro-3-((4-hydroxy-1-(3-phenylbutanoyl)piperidin-4-yl)methyl)pyrrolo[2,1-f][1,2,4]triazin-4(3H)-one] here?
The IC50 was 1 to 10 µM.

For `O=C(c1ccc(-c2ccccc2)cc1Cl)N1CCC(O)(Cn2cnn3cccc3c2=O)CC1` [Compound I-50, 3-((1-(3-chloro-[1,1′-biphenyl]-4-carbonyl)-4-hydroxypiperidin-4-yl)methyl)pyrrolo[2,1-f][1,2,4]triazin-4(3H)-one], which IC50 is on record?
Its IC50 is greater than 10 µM.

`O=C(c1ccc(-c2ccc(C(=O)N3CCC(O)(Cn4cnn5cccc5c4=O)CC3)c(Cl)c2)cc1)N1CCCC1` [Compound I-51, 3-((1-(3-chloro-4′-(pyrrolidine-1-carbonyl)-[1,1′-biphenyl]-4-carbonyl)-4-hydroxypiperidin-4-yl)methyl)pyrrolo[2,1-f][1,2,4]triazin-4(3H)-one] was tested. Which IC50 did it give?
Its IC50 is 1 to 10 µM.

`O=C(c1ccc(-c2ccc(C(=O)N3CCC(O)(Cn4cnn5cccc5c4=O)CC3)cc2)cc1)N1CCCCC1` [Compound I-52, 3-((4-hydroxy-1-(4′-(piperidine-1-carbonyl)-[1,1′-biphenyl]-4-carbonyl)piperidin-4-yl)methyl)pyrrolo[2,1-f][1,2,4]triazin-4(3H)-one] was tested. Which IC50 did it give?
Its IC50 is greater than 10 µM.

`CC(C)(C)C(Cc1ccccc1)C(=O)N1CCC(O)(Cn2cnn3cccc3c2=O)CC1` (stereo not drawn) [Compound I-53, 3-((1-(2-benzyl-3,3-dimethylbutanoyl)-4-hydroxypiperidin-4-yl)methyl)pyrrolo[2,1-f][1,2,4]triazin-4(3H)-one] was tested. Which IC50 did it give?
Its IC50 is 1 to 10 µM.

`N#CC(Cc1ccccc1)C(=O)N1CCC(O)(Cn2cnn3cccc3c2=O)CC1` (stereo not drawn) [Compound I-54, 2-benzyl-3-(4-hydroxy-4-((4-oxopyrrolo[2,1-f][1,2,4]triazin-3(4H)-yl)methyl)piperidin-1-yl)-3-oxopropanenitrile] was tested. Which IC50 did it give?
Its IC50 is greater than 10 µM.

How did the IC50 turn out when `CC(C)(c1ccccc1)c1ccc(C(=O)N2CCC(O)(Cn3cnn4cccc4c3=O)CC2)cc1` [Compound I-55, 3-((4-hydroxy-1-(4-(2-phenylpropan-2-yl)benzoyl)piperidin-4-yl)methyl)pyrrolo[2,1-f][1,2,4]triazin-4(3H)-one] was run?
Its IC50 is 1 to 10 µM.

Which IC50 does the source give for `C[C@H](CC(=O)N1CCC(O)(Cn2cnn3cccc3c2=O)CC1)c1ccccc1` [Compound I-56, (R)-3-((4-hydroxy-1-(3-phenylbutanoyl)piperidin-4-yl)methyl)pyrrolo[2,1-f][1,2,4]triazin-4(3H)-one] here?
Its IC50 is less than 0.2 µM.

`CC(CC(=O)N1CCC(O)(Cn2cnn3cccc3c2=O)CC1)n1cccc1` (stereo not drawn) [Compound I-57, 3-((1-(3-(1H-pyrrol-1-yl)butanoyl)-4-hydroxypiperidin-4-yl)methyl)pyrrolo[2,1-f][1,2,4]triazin-4(3H)-one] was tested. Which IC50 did it give?
The IC50 was less than 0.2 µM.

For `O=C(CC1CCc2ccccc2C1)N1CCC(O)(Cn2cnn3cccc3c2=O)CC1` (stereo not drawn) [Compound I-58, 3-((4-hydroxy-1-(2-(1,2,3,4-tetrahydronaphthalen-2-yl)acetyl)piperidin-4-yl)methyl)pyrrolo[2,1-f][1,2,4]triazin-4(3H)-one], which IC50 is on record?
The IC50 was greater than 10 µM.

For `O=C(c1ccc(-c2cscn2)cc1)N1CCC(O)(Cn2cnn3cccc3c2=O)CC1` [Compound I-59, 3-((4-hydroxy-1-(4-(thiazol-4-yl)benzoyl)piperidin-4-yl)methyl)pyrrolo[2,1-f][1,2,4]triazin-4(3H)-one], which IC50 is on record?
The IC50 was greater than 10 µM.

For `CCC(Cc1ccccc1)C(=O)N1CCC(O)(Cn2cnn3cccc3c2=O)CC1` (stereo not drawn) [Compound I-60, 3-((1-(2-benzylbutanoyl)-4-hydroxypiperidin-4-yl)methyl)pyrrolo[2,1-f][1,2,4]triazin-4(3H)-one], which IC50 is on record?
Its IC50 is 1 to 10 µM.
